The values below come from patent US20040053872A1, “New sequences” (priority 2000, published 2004).

The target in data set [1] is T1, recombinant HIV-1 RT L100I (Human immunodeficiency virus type 1 group M subtype B, UniProt P03366, L699I).
T1 construct: performed by recombinant HIV-1 RT:s with defined
Briefly: RT assay: inhibition of RNA dependent DNA polymerisation (modified Lenti RT assay). The format is biochemical. Conditions: read-out: IC50 of indicated inhibitor in RT assay. As for the experimental part:
The flourimetric RT assay (Cavidi® Lenti RT activity kit), available from Cavidi Tech, Uppsala, Sweden, was used for the determination of RT activity. In short, poly(rA) covalently bound to the wells of a 96 well microtiter plate serves as template for the incorporation of 5-bromodeoxyuridine 5′-triphosphate (BrdUTP) during the reverse transcription step at 33° C. The amount of bromodeoxyuridine monophosphate (BrdUMP) incorporated into DNA is detected with an alkaline phosphatase (Ap) conjugated, anti-BrdU monoclonal antibody. An Ap substrate, 4-methylumbelliferyl phosphate, is finally used for fluorimetric product detection.
(i) Protocol for determination of inhibition of RNA dependent DNA polymerisation: The inhibition studies were performed in a modified Lenti RT assay. […] The enzyme reaction was initiated by addition of 100 μl aliquots of the enzyme/inhibitor mixture to each well of a microtiter plate containing 100 μl RT reaction mixture per well. The polymerase reaction was allowed to proceed for 3 hours at 33° C., whereupon the reaction was terminated by a wash of the plate. […] The amount of RT used was standardised to an activity corresponding to 90-130 pg (7-10×10^−16 mol) reference HIV-1 RT per well
The capacity of the indicated substances to inhibit the enzymes in a panel of recombinant HIV 1 subtype B RTs was studied according to “Protocol for determination of inhibition of RNA dependent DNA polymerisation” (protocol (i) above). The final nucleotide substrate (BrdUTP) concentration was 0.35 μM, and the primer (odT22) amount was 0.03 ng per well.

Data set [2] relates to panel of recombinant HIV 1 subtype B RTs. The experiment in a line: RT binding inhibition (BIC) assay, whole RT panel. The following applies: all conditions studied. As for the experimental part: (§1) (iii) Protocol for RT binding inhibition (BIC) assay: The study was performed in a modified DNA polymerase assay. The inhibitors were serially diluted in five steps, enzyme dilution was added and the enzyme/inhibitor mixtures were incubated for 30 minutes at 33° C. Aliquots of the enzyme/inhibitor mixture were transferred to each well of a microtiter plate containing either immobilised primer, or primer/template. The enzyme was allowed to bind to the immobilised polymer for 90 min at 33° C. The amount of RT used was standardised to an activity corresponding to 40-60 pg (3.3-5.0×10^−16 mol) reference HIV-1 RT per well. The plates were then washed to remove unbound enzyme whereupon the amount of bound enzyme was determined by addition of the appropriate reaction solution for polymerisation (i e a reaction solution devoid of primer for studies of primer binding and a reaction solution devoid of both primer and template for studies of binding to primed template). The polymerase reaction was allowed to proceed for 3 hours at 33° C., whereupon the reaction was terminated by a wash of the plate.
(§2) The capacity of the indicated substances to inhibit the binding to primer or to primed DNA template of a panel of recombinant HIV 1 subtype B RTs was studied according to “Protocol for RT binding inhibition (BIC) assay” (protocol (iii) above).

In data set [3] the test system is Mut1 (RNase H inactive mutant of HIV-1 RT). The experiment in a line: Gel mobility shifts in native polyacrylamide gel electrophoresis (PAGE). The format is binding. Conditions: native 20% PAGE; ammonium sulphate up to […]. The text has this: In the following experiment, the terms “34-mer” and “35-mer” refer to SEQ ID NO:3 (produced in example A1 above) and SEQ ID NO:4 (produced in example A2 above), respectively. […] Natural RT molecules have an RNase H activity which normally cleaves RNA molecules. […] This mutant is produced according to the method given in Schatz, O., Cromme, F. V., Grüninger-Leitch, F. and Le Grice, S. F. J., Febs Letter. Vol.257, No.2 p.311-314. This RT-mutant is further on referred to as Mut1. The following experiments are carried out:
2. Gel mobility shifts in polyacrylamide gel electrophoresis (PAGE) experiments.
a) Native 20% PAGE gel is run at 4-5° C. Samples are incubated at 4° C. in 50 mM hepes buffer and 5 mM magnesium chloride and varying salt concentrations as indicated below.
Samples are incubated for 90 min at 4° C. prior to a further 10 min incubation at 4° C. with ammonium sulphate and/or KCl. Samples applied to lanes 4 and 5 have twice the amount of 34-mer used for the other samples.
b) Native 20% PAGE gel run at 4-5° C. Samples are incubated at 4° C. in 50 mM hepes buffer and 5 mM magnesium chloride, with varying concentrations of ammonium sulphate.
Native 20% PAGE gel is run at 4-5° C. Samples are incubated at 4° C. in 50 mM hepes buffer, 15 mM manganese sulphate, 1 mM EDTA and 0.25 mM EGTA.
Samples are incubated 10 min at room temperature prior to a 60 min incubation at 4° C. One μl of sample solution is applied per lane. Electrophoresis is conducted with up to 400 volts while cooling to approximately 4° C. After 0.209 kWh the gel is silver stained.

Data set [4] addresses recombinant HIV-1 RT, ref RT (HIV type B, clone BH 10) (Human immunodeficiency virus type 1 group M subtype B, UniProt P03366). The following applies: read-out: Inhibition of binding to primer (BIC50), immobilised primer, binding 90 min at 33° C. As for the experimental part: as §1, §2
In data set [5] the target is T2, recombinant HIV-1 RT K103N/E478Q (Human immunodeficiency virus type 1 group M subtype B, UniProt P03366, E1077Q/K702N).
T2 construct: performed by recombinant HIV-1 RT:s with defined
Conditions: binding 90 min at 33° C. As for the experimental part:
as §1, §2

The mark [6] stands for this setting: enzyme/inhibitor preincubated 30 minutes at 33° C., BrdUTP 0.35 μM, odT22 0.03 ng per well, 3 hours.

Read-outs that look alike come from different tables or passages of the source. Strand notation (5' to 3'): a small letter for the sugar, then the base; units joined by * are phosphorothioate-linked, units joined directly phosphodiester-linked; [ ] holds rarer units or linkages, { } end groups; capitals alone tell only the bases. r = 2'-OH (RNA)

As for “substance 199: 35-mer RNA molecule having the sequence set out in SEQ ID NO:5; similar to SEQ ID NO:4 with some naturally occurring nucleotide derivatives (GCUCAGNCGGNAGAGCANCAGACUUUUAANCUGAN; RNA, backbone, methylation of C and the base at N not given here; naturally occurring modified nucleosides at n positions)”, the IC50 stood at 7.4 nM in data set [1] (RT and inhibitor added directly to the assay mixture without preincubation); 10 nM in data set [1] (setting [6]). The “Capacity to prevent RT binding to primer or primed template” value in data set [2] is on record as “had the capacity to prevent RT binding to either primer alone or to primed template”.

Regarding “substance 198: 15-mer RNA phosphorothioate with the base sequence of tRNALys3 anticodon stem and loop, SEQ ID NO:7 (rC*rA*rG*rA*rC*rU*rU*rU*rU*rA*rA*rU*rC*rU*rG) [reference compound]”, in data set [3], the “Complex with Mut1 at high salt concentrations” value was “dissociates from Mut1”. The IC50 in data set [1] (setting [6]) was found to be 450 nM; in data set [4] it was 100 nM; in data set [5] (immobilised primer, read-out: Inhibition of binding to primer (BIC50)) it was 400 nM; in data set [5] (immobilised primer/template, read-out: Inhibition of binding to template/primer (BIC50)), 1000 nM. In data set [2], the “Capacity to prevent RT binding to primer or primed template” value was “significantly less capacity to prevent RT binding”.
